This assay has as its system immortalized sebocytes (SZ95) and clones. As to the kind of experiment: Growth behavior / cell proliferation test (4-methylumbelliferyl heptanoate fluorescence assay). The settings on record: for proliferation response of clones stimulated by retinoids: other clones, corresponds to response of normal human epidermal keratinocytes; for proliferation response of clones stimulated by retinoids / proliferation response of clones inhibited by retinoids: 10^-7 M retinoid, 9 days, FIG. 9; for proliferation response of clones inhibited by retinoids: some clones, order 13-cis-retinoic acid>all-trans-retinoic acid>>Acitretin. Format: cell-based, human. The procedure: _Cells were seeded in 96 well culture plates at densities of 0.5 to 4×10^3 cell/well. Cell proliferation was assessed by the 4-methylumbelliferylheptanoatefluorescence assay and measured automatically (Zouboulis et al. Melanoma. Res. 1991; 1:91-95).
To this extent, on the day of evaluation, the culture medium was removed, the cells were washed twice with PBS and […] 100 μg solution of 4-methylumbelliferyl heptanoate (Sigma, Deisenhofen, Germany) in PBS were added to each well. The plates were then incubated at 37° C. for 30 minutes and released fluorescence was measured by a suitable fluorescence measuring device (Titertec-Fluoroscan II; Flow, Meckenheim, Germany). Fluorescence units were obtained at 355 nm excitation and 460 nm emission filters.
_5α-dihydrctestosterone (5α-DHT; Sigma) was dissolved in DMSO and subsequently in serum-free, phenol-free modified DMEM/Ham's F12-Medium (1:1) (Gibco-BRL) with 2 mM n-Acetyl-L-alanyl-L-glutamine which was supplemented with 5 ng/ml EGF, 50 μg/ml bovine pituary extract, 1 mg/ml fatty acid-free bovine serum albumine (Boehringer Mannheim) and 50 μg/ml gentamycine to obtain a final concentration of 10^−6 M 5α-DHT and 0.1% DMSO. 0.1% DMSO alone served as a control. The cells (0.5 to 2×10^3/well) were treated with 5α-DHT for 18 days.
For the treatment with retinoids, all-trans-retinoic acid, 13-cis-retinoic acid and acitretin were dissolved in DMSO and subsequently placed in serum-free modified DME-Medium/Ham's F12-Medium (1:1) with […] N-Acetyl-L-alanyl-L-glutamine which was supplemented with 5 ng/ml EGE, 50 μg/ml bovine pituary extract, 1 mg/ml fatty acid-free bovine serum albumine and 50·μg/ml gentamycine to obtain a final concentration of 10^−7 M retinoid and 0,1% DMSO. 0,1% DMSO alone served as a control. Retinoids were handled under dim amber light. The cells (0.5 to 1×10^3/well) were treated with the retinoids for 9 days.

Experimental findings from patent US20160237406A1, “SEBOCYTES, SEBOCYTE CELL LINES AND APPLICATIONS THEREOF” (priority 2001, published 2016) are described below.

On to `C[C@]12CCC(=O)C[C@@H]1CC[C@@H]1[C@@H]2CC[C@]2(C)[C@@H](O)CC[C@@H]12` [5α-DHT, 5α-dihydrctestosterone], for which, where the note is “10^-6 M 5α-DHT, serum-free medium, after the 8th day, vs control (p<0.05; p<0.01), FIG. 8”, the “effect on proliferation of the cells” value is “increased the proliferation of the cells significantly”. Under “exemplary sebocyte clone, seeding 2.000/well, serum-free medium supplemented with 10^-6 M 5α-DHT, 18 days, control 136 hours”, this molecule showed a population doubling time of 53.7 h.
As for `CC1=C(/C=C/C(C)=C/C=C/C(C)=C\C(=O)O)C(C)(C)CCC1` [13-cis-retinoic acid], under “serum-free medium”, the “proliferation response of clones stimulated by retinoids” value is on record as “stimulated in proliferation” and the “proliferation response of clones inhibited by retinoids” value is reported as “inhibition of proliferation”.
`COc1cc(C)c(/C=C/C(C)=C/C=C/C(C)=C/C(=O)O)c(C)c1C` [Acitretin, acitretin]: the “proliferation response of clones inhibited by retinoids” value (serum-free medium) is “inhibition of proliferation”.
Take `CC1=C(/C=C/C(C)=C/C=C/C(C)=C/C(=O)O)C(C)(C)CCC1` [all-trans-retinoic acid]: where the note is “serum-free medium”, the “proliferation response of clones stimulated by retinoids” value is “stimulated in proliferation” and the “proliferation response of clones inhibited by retinoids” value is “inhibition of proliferation”.
